This is an account of results in the supplement of paper PMC11061612.

Assay in all cases: Bliss excess, mean over the matrix (fraction); higher = more synergy
The subject of assay [1] is COR-L95 (Small Cell Lung Carcinoma). Summed up: (§1)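 Cell lines in DMEM/F12 or RPMI with 10% FBS were plated in 1536-well plates, held 24 hours at 37°C, 5% CO2, then given two-drug dose matrices for 72 hours (DMSO typically 0.2%). Viability was read by CellTiter-Glo 2.0 luminescence and scaled as inhibition from 0 (vehicle wells) to 1 (blank wells). Combination Emax is the second-highest inhibition in the matrix; Bliss excess is observed combination effect minus expected EA + EB − EA·EB, EA and EB being single-agent effects.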

Assay [2] has as its system NCI-H1781 (Lung Adenocarcinoma). A digest of the protocol:
as §1

Assay [3] relates to SW780 (Bladder Carcinoma). A digest of the protocol: as §1
Assay [4] deals with HPAC (Pancreatic Carcinoma). A digest of the protocol:
as §1

Assay [5] relates to NALM-6 (B-Lymphoblastic Leukemia). Summed up: as §1
Assay [6] relates to MDA-MB-231 (Breast Carcinoma). Summed up:
as §1

Assay [7] relates to LS-513 (Colorectal Carcinoma). A digest of the protocol: as §1
The subject of assay [8] is SW1088 (Low Grade Glioma). A digest of the protocol: as §1
For assay [9], the system named is NCI-H1793 (Lung Adenocarcinoma). A digest of the protocol: as §1
For assay [10], the system named is COR-L23 (Non-Small Cell Lung Carcinoma). A digest of the protocol:
as §1

Assay [11] relates to HT-29 (Colorectal Carcinoma). Summed up: as §1
In assay [12] the test system is LU-99A (Non-Small Cell Lung Carcinoma). A digest of the protocol: as §1
Assay [13] has as its system NCI-H1694 (Small Cell Lung Carcinoma). Summed up:
as §1

The test system of assay [14] is EM-2 (Chronic Myelogenous Leukemia). A digest of the protocol: as §1
Assay [15] concerns SW1990 (Pancreatic Carcinoma). A digest of the protocol: as §1
The subject of assay [16] is DB (B-Cell Non-Hodgkin's Lymphoma). A digest of the protocol:
as §1

For assay [17], the system named is IGR-1 (Melanoma). A digest of the protocol: as §1
Assay [18] deals with SW1783 (Low Grade Glioma). Summed up: as §1
Assay [19] has as its system DOV13 (Ovarian Carcinoma). A digest of the protocol: as §1
For assay [20], the system named is HCC2157 (Breast Carcinoma). A digest of the protocol:
as §1

On to `CC(=O)Nc1cccc(-n2c(=O)n(C3CC3)c(=O)c3c(Nc4ccc(I)cc4F)n(C)c(=O)c(C)c32)c1` [Trametinib] + Cc1nc(-c2cn3c(n2)-c2ccc(-c4cnn(C(C)(C)C(N)=O)c4)cc2OCC3)n(C(C)C)n1 [Taselisib] (first compound max 1 µM, 7x7, partner max 10 µM), for which the Bliss excess in [1] was 0.0096; in [2], -0.053; in assay [3], 0.129; in [4], 0.0762; in [5] it was -0.0228; in [6] it was 0.142. Besides, the Bliss excess in [7] is 0.0113; in assay [8] it was 0.0579; in [9], 0.0519; in [10], 0.162; in assay [11], 0.0526; in assay [12], 0.116. Further, the Bliss excess in assay [13] was 0.0583; in assay [14], 0.319; in assay [15] it was 0.148; in assay [16] it was -0.004; in [17], 0.15; in assay [18], -0.027. For the same compound, the Bliss excess amounted to 0.136 in assay [19] and 0.0554 in assay [20].
`COc1cccc(OCCCN)c1-c1cc(Nc2cnc(C#N)cn2)n[nH]1` [Prexasertib] + CN(C)CCCOc1ccc(-c2ccc3ncc4c(c3c2)n(C2CCOCC2)c(=O)n4C)cn1 [AZD0156] (first compound max 1 µM, 7x7, partner max 1 µM): the Bliss excess in assay [1] is -0.0723; in [2], -0.0803; in assay [3] it was -0.0232; in [4], 0.0404; in assay [5], 0.0002; in [6], -0.0306. Besides, the Bliss excess in assay [7] was 0.0156; in assay [8], -0.0241; in assay [9] it was -0.0227; in [10], 0.0229; in [11], -0.0343; in [12], 0.0172. Further, the Bliss excess in [13] is -0.0433; in [14] it was -0.0279; in assay [15], -0.0247; in assay [16] it was 0.0289; in [17] it was 0.0399; in assay [18], -0.0111. Moreover, the figures for the Bliss excess in assay [19] and in [20] were -0.0227 and -0.0366, respectively.
For `C[C@@H]1COCCN1c1cc(C2([S@](C)(=N)=O)CC2)nc(-c2ccnc3[nH]ccc23)n1` [AZD6738] + O=C(c1cc(Cc2n[nH]c(=O)c3ccccc23)ccc1F)N1CCN(C(=O)C2CC2)CC1 [Olaparib] (first compound max 10 µM, 7x7, partner max 10 µM), the Bliss excess in [1] is -0.0399; in assay [2], -0.0218; in assay [3] it was -0.0047; in [4] it was 0.0125; in assay [5], 0.0015; in assay [6], -0.0335. Also, the Bliss excess in assay [7] was 0.0419; in [8] it was 0.0087; in [9], -0.0153; in assay [10], -0.034; in assay [11], -0.0014; in assay [12], -0.0289. In addition, the Bliss excess is 0.0089 in assay [13]; 0.0026 in assay [14]; -0.0071 in assay [15]; -0.0359 in [16]; 0.0059 in assay [17]; 0.0376 in assay [18]. For the same compound, the Bliss excess is 0.0127 in assay [19] and 0.0441 in assay [20].
In the case of `COc1cccc(OCCCN)c1-c1cc(Nc2cnc(C#N)cn2)n[nH]1` [Prexasertib] + C=CCn1c(=O)c2cnc(Nc3ccc(N4CCN(C)CC4)cc3)nc2n1-c1cccc(C(C)(C)O)n1 [AZD1775] (first compound max 1 µM, partner max 1 µM), the Bliss excess in assay [1] is -0.0187; in [2] it was 0.0258; in [3], 0.0349; in assay [4], 0.0323; in assay [5] it was 0.0507; in assay [6] it was 0.124. Moreover, the Bliss excess is 0.0763 in assay [7]; -0.0156 in assay [8]; -0.0045 in assay [9]; 0.047 in assay [10]; -0.0247 in assay [11]; 0.0196 in assay [12]. For the same compound, the Bliss excess in assay [13] is 0.13; in assay [14] it was 0.0475; in assay [15], -0.0061; in assay [16] it was 0.071; in [17], 0.0284; in assay [18] it was -0.0053. The figures for the Bliss excess in assay [19] and in [20] were 0.0963 and 0.0668, respectively.
Take `CC1(C)CCC(CN2CCN(c3ccc(C(=O)NS(=O)(=O)c4ccc(NCC5CCOCC5)c([N+](=O)[O-])c4)c(Oc4cnc5[nH]ccc5c4)c3)CC2)=C(c2ccc(Cl)cc2)C1` [Venetoclax] + CN(C)CCCOc1ccc(-c2ccc3ncc4c(c3c2)n(C2CCOCC2)c(=O)n4C)cn1 [AZD0156] (first compound max 1 µM, 7x7, partner max 1 µM): the Bliss excess is 0.0051 in [1]; 0.0048 in assay [2]; -0.0031 in [3]; -0.0146 in assay [4]; 0.0426 in assay [5]; 0.0067 in [6]. In addition, the Bliss excess was -0.0273 in assay [7]; -0.0651 in [8]; -0.0158 in assay [9]; -0.0064 in assay [10]; -0.0086 in assay [11]; -0.0375 in [12]. Moreover, the Bliss excess in assay [13] is -0.0001; in assay [14], -0.0045; in assay [15], -0.0056; in [16] it was -0.0166; in assay [17], 0.0116; in assay [18], -0.0532. The Bliss excess in assay [19] was -0.0231; in [20] it was 0.0314.
On to `Cn1cnc2c(F)c(Nc3ccc(Br)cc3Cl)c(C(=O)NOCCO)cc21` [Selumetinib] + C=CCn1c(=O)c2cnc(Nc3ccc(N4CCN(C)CC4)cc3)nc2n1-c1cccc(C(C)(C)O)n1 [AZD1775] (first compound max 10 µM, partner max 1 µM), for which the Bliss excess in [1] is -0.0464; in [2], -0.063; in assay [3] it was -0.0555; in assay [4], -0.0467; in [5] it was 0.0755; in assay [6] it was -0.0337. Moreover, the Bliss excess in assay [7] is -0.0339; in [8], -0.0468; in assay [9], -0.0764; in assay [10] it was 0.0308; in assay [11], -0.0432; in assay [12], -0.0624. Also, the Bliss excess was -0.067 in assay [13]; -0.0618 in assay [14]; 0.0134 in assay [15]; -0.193 in assay [16]; 0.0466 in assay [17]; -0.0939 in [18]. In addition, the Bliss excess in assay [19] is -0.0631; in [20], 0.0111.
On to `CC1(C)CCC(CN2CCN(c3ccc(C(=O)NS(=O)(=O)c4ccc(NCC5CCOCC5)c([N+](=O)[O-])c4)c(Oc4cnc5[nH]ccc5c4)c3)CC2)=C(c2ccc(Cl)cc2)C1` [Venetoclax] + C[C@@H](Nc1cc(F)cc(F)c1)c1cc(C(=O)N(C)C)cc2c(=O)cc(N3CCOCC3)oc12 [AZD8186] (first compound max 1 µM, 7x7, partner max 3 µM), for which the Bliss excess in assay [1] was 0.095; in [2], -0.0341; in assay [3], -0.0135; in assay [4], -0.0029; in [5], 0.0348; in assay [6], -0.0066. The Bliss excess was -0.0551 in [7]; -0.0044 in assay [8]; 0.0197 in assay [9]; -0.0328 in assay [10]; -0.0255 in [11]; -0.0412 in [12]. The Bliss excess in [13] is 0.0808; in assay [14], 0.0104; in [15] it was -0.0255; in assay [16], -0.0332; in [17] it was -0.0471; in [18] it was -0.0258. Besides, the results for the Bliss excess in [19] and in [20] were -0.0073 and 0.115, respectively.
